From BigSolDB 2.1

O=c1[nH]c2ccccc2c(=O)o1
solubility (mole fraction)
Details | 288.15 K | 293.15 K | 298.15 K | 303.15 K | 308.15 K | 313.15 K | 318.15 K | 323.15 K | 328.15 K
in 1,4-dioxane | 0.00839 | 0.00944 | 0.0107 | 0.0119 | 0.0133 | 0.0146 | – | 0.0179 | 0.0198
in 2-butanone | 0.00741 | 0.00805 | 0.00877 | 0.00964 | 0.0107 | 0.0117 | 0.0129 | 0.014 | 0.0153
in acetone | 0.00794 | 0.00873 | 0.00965 | 0.0109 | 0.0122 | 0.0135 | 0.0149 | 0.0165 | 0.0184
in acetonitrile | 0.003 | 0.0033 | 0.00374 | 0.0043 | 0.00485 | 0.00553 | 0.00624 | 0.00712 | 0.00797
in ethanol | 0.00134 | 0.0015 | 0.00175 | 0.00201 | 0.00239 | 0.00277 | 0.00328 | 0.00381 | 0.00439
in ethyl acetate | 0.0032 | 0.00352 | 0.00389 | 0.00434 | 0.00482 | 0.00533 | 0.00582 | 0.00636 | 0.00694
in isopropanol | 0.00104 | 0.00121 | 0.00144 | 0.00176 | 0.00216 | 0.00265 | 0.00316 | 0.0038 | 0.00457
in isopropyl acetate | 0.00185 | 0.00206 | 0.00234 | 0.00256 | 0.00291 | 0.00325 | 0.0036 | 0.00396 | 0.00434
in methanol | 0.00149 | 0.00173 | 0.00204 | 0.00243 | 0.00295 | 0.00354 | 0.00425 | 0.00507 | 0.00606
in methyl acetate | 0.00415 | 0.00464 | 0.00517 | 0.00573 | 0.00634 | 0.00699 | 0.00768 | 0.00844 | 0.00937
in n-propanol | 0.00116 | 0.00133 | 0.00152 | 0.00181 | 0.00208 | 0.0025 | 0.00291 | 0.00341 | 0.00394
in n-propyl acetate | 0.00229 | 0.00255 | 0.00285 | 0.00318 | 0.00351 | 0.00394 | 0.00434 | 0.00477 | 0.00534
